“And” between values parts separate entries of the source, which are not always exact repeats. Equal entries are not always repeated. Where two headings read alike, the source gives them in different places.
How the values were obtained:
[1] = test system: S. pneumoniae T14 capsule polysaccharide; format: cell-based, Streptococcus pneumoniae serotype 14
Method: (§1) FIGS. 1A-1D. Screen for azido sugar incorporation into S. pneumoniae T14 capsule polysaccharide. […] Bacteria were grown until the ΔOD600≥0 for >30 minutes, then lysed with 0.1% NLS for 30 minutes. Growth was measured offline using a spectrophotometer blanked with PBS at 600 nm. (FIG. 1A) azido incorporation into polysaccharide was then quantified via fluorescent labeling (FL) with normalization to refractive index (RI). MaxOD and End Of Fermentation time (EOF) are provided in (FIG. 1B) and (FIG. 1C), respectively. Polysaccharide was extracted using EtOH and CaCl2 and analyzed via SEC-RI for (FIG. 1D) polysaccharide titer. n=1-4, error bars=+/−StDev.
A SEC fluorescence and Refractive index assay (SEC-FL/RI) was used for azide measurement to confirm the incorporation of azide modification.
Click-It Cell Reaction Buffer kit and Alexa Fluor 488 Alkyne were purchased from Invitrogen.
The initial procedure when running the SEC-FL/RI was to prepare the sample to a target concentration of 0.01 mg/m by mixing a pre-diluted polysaccharide to the final target concentration with the Click Reaction mixture. The reaction mixture consisted of 2.67 mM CuSO4, 2.67 mg/mL cell additive reagent, and 20 uM Alexa Fluor Alkyne. This was mixed with the sample at a 3:1 ratio of reaction mixture to sample and incubated in the absence of light. Reactions were transferred to HPLC vials and ran on the SEC-FL/RI HPLC setup. The RI detector (RID) allowed for detection of the polysaccharide while the Fluorescence Detector (FLD) was used to determine the level of fluor incorporated into the polysaccharide sample. The ratio of the two peak areas gave a measurement for the amount of azide incorporated to the polysaccharide.
Later, in addition to the incubation of the sample for thirty minutes, a buffer exchange step was added that washed out the unreacted fluor as well as the reaction matrix reagents in order to improve the baselines of the FLD and RID during the HPLC run. This added greater resolution of the peak associated with the azide functionalized polysaccharide. The assay was useful for relative quantitation of azide incorporation into the polysaccharide but could not quantify an exact numerical concentration. To improve this aspect work was undertaken to use a polysaccharide with known levels of azido functionalization to make a standard curve that varied the % Azido while keeping the polysaccharide mass the same. This was done by mixing the known azido modified poly (polysaccharide) with specific amounts of native (unmodified) polysaccharide. A strong linear fit for the generated standard curve was seen.
The values for percent azide were able to be converted to a μM azide per mM polysaccharide by converting from % azide using the constant polysaccharide concentration.

[2] = test system: S. pneumoniae T14; format: cell-based, Streptococcus pneumoniae serotype 14; conditions: for Polysacch. Titer: production medium + Galactose (30 g/L) + 2AzGlc (0.25 mM)
Method: as §1
FIGS. 2A-2D Impact of 2AzGlcAc4 concentration on S. pneumoniae T14 growth and poly production in production medium supplemented with Galactose (30 g/L). […] (FIG. 2A) Growth was measured offline using a spectrophotometer blanked with PBS at 600 nm. At the end of fermentation, cultures were lysed with 0.1% NLS for 30 min. and polysaccharide was extracted via EtOH/CaCl2) precipitation. Polysaccharide titer (FIG. 2B) and size (FIG. 2C) were measured via SEC-RI and SEC-MALS, respectively. (FIG. 2D) azido incorporation was then quantified via fluorescent labeling (FL) and normalized to the refractive index (RI). n=3, error bars=+/−StDev.
FIGS. 3A-3E Impact of 2AzGlc concentration on S. pneumoniae T14 growth and polysaccharide production in production medium supplemented with Galactose (30 g/L). […] (FIG. 3A) Growth was measured offline using a spectrophotometer blanked with PBS at 600 nm. Cultures were lysed with 0.1% NLS for 30 min. and polysaccharide was extracted via EtOH/CaCl2) precipitation. Polysaccharide (FIG. 3B/FIG. 3C) titer and (FIG. 3D) size were measured via SEC-RI and SEC-MALS, respectively. (FIG. 3E) azido incorporation was then quantified via fluorescent labeling (FL) and normalized to the refractive index (RI). n=3, error bars=+/−StDev.
We tested the impact of 2AzGlc concentration on S. pneumoniae T14 growth, polysaccharide production, and azido incorporation by growing the bacteria in production media (supplemented with Glucose (dextrose, 30 g/L)) with various concentrations of 2AzGlc (0, 1, 5, 10, 20, 40, and 60 mM).

[3] = azido feed DOE: Gal 30 g/L, initial 2AzGlc 0 mM, 2AzGlc feed stock 4 mM, pH 7.33, 300 rpm
[4] = azido feed DOE: Gal 30 g/L, initial 2AzGlc 0 mM, 2AzGlc feed stock 6.5 mM, pH 7.33, 300 rpm
[5] = azido feed DOE: Gal 30 g/L, initial 2AzGlc 0.1 mM, 2AzGlc feed stock 4 mM, pH 7.33, 300 rpm
[6] = azido feed DOE: Gal 30 g/L, initial 2AzGlc 0.1 mM, 2AzGlc feed stock 6.5 mM, pH 7.33, 300 rpm
[7] = azido feed DOE: Gal 40 g/L, initial 2AzGlc 0 mM, 2AzGlc feed stock 4 mM, pH 7.33, 300 rpm
[8] = azido feed DOE: Gal 40 g/L, initial 2AzGlc 0 mM, 2AzGlc feed stock 6.5 mM, pH 7.33, 300 rpm
[9] = azido feed DOE: Gal 40 g/L, initial 2AzGlc 0.1 mM, 2AzGlc feed stock 4 mM, pH 7.33, 300 rpm
[10] = azido feed DOE: Gal 40 g/L, initial 2AzGlc 0.1 mM, 2AzGlc feed stock 6.5 mM, pH 7.33, 300 rpm
[11] = initial galactose 40 g/L, initial 2AzGlc 0.1 mM, 4.0 mM 2AzGlc feed stock
[12] = production media + 2AzGlc (10 mM), pH 6.33, agitation 100 rpm
[13] = production media + 2AzGlc (10 mM), pH 6.33, agitation 300 rpm
[14] = production media + 2AzGlc (10 mM), pH 6.66, agitation 200 rpm
[15] = production media + 2AzGlc (10 mM), pH 7, agitation 100 rpm
[16] = production media + 2AzGlc (10 mM), pH 7, agitation 300 rpm
[17] = production media + 2AzGlc (10 mM), pH 7.33, agitation 100 rpm
[18] = production media + 2AzGlc (10 mM), pH 7.33, agitation 200 rpm
[19] = production media + 2AzGlc (10 mM), pH 7.33, agitation 300 rpm
[20] = production media + Glucose (dextrose, 30 g/L), media pH 7, 2AzGlc 1 mM
[21] = production media + Glucose (dextrose, 30 g/L), media pH 7, 2AzGlc 5 mM
[22] = production media + Glucose (dextrose, 30 g/L), media pH 7, 2AzGlc 10 mM
[23] = production media + Glucose (dextrose, 30 g/L), media pH 7, 2AzGlc 20 mM
[24] = production media + Glucose (dextrose, 30 g/L), media pH 7.33, 2AzGlc 20 mM
[25] = production media + Glucose (dextrose, 30 g/L), media pH 7.33, 2AzGlc 40 mM
[26] = production media + Glucose (dextrose, 30 g/L), media pH 7.33, 2AzGlc 60 mM
[27] = 2AzGlc titration 0-60 mM, production media + Glucose (dextrose, 30 g/L)

In the case of `[N-]=[N+]=N[C@@H](C=O)[C@@H](O)[C@H](O)[C@H](O)CO` [2AzGlc, 2-Azido-2-deoxy-D-glucose], the “increase between lowest and higher FL/RI achieved” value ([1]; 2AzGlc titration 1-60 mM, production media + Glucose (dextrose, 30 g/L)) is reported as 10 fold, the FL/RI [1, 3] is reported as 101.45 and 103.61 and the FL/RI [1, 4] is reported as 113.82 and 121.9. For the same compound, the FL/RI [1, 5] was 116.16 and 116.31, the FL/RI [1, 6] was 84.53 and 83.69 and the FL/RI [1, 7] was 97.04 and 114.22. For the same compound, the FL/RI [1, 8] was 122.7 and 110.09, the FL/RI [1, 9] was 125.02 and 122.41 and the FL/RI [1, 10] was 79.3 and 63.19. For the same compound, the FL/RI ([1]; fed-batch, initial galactose 5.0 g/L, 0.25 mM 2AzGlc, galactose feed rate FR #1) was 45, the FL/RI ([1]; fed-batch, initial galactose 5.0 g/L, 0.25 mM 2AzGlc, galactose feed rate FR #2) was 18 and the “average FL/RI” value [1, 11] was 123.7. The FL/RI [1, 12] was 91.9 and 100.7, the FL/RI [1, 13] was 98.3 and 97.5 and the FL/RI [1, 14] was 114.5 and 135.0. The FL/RI [1, 15] was 117.8 and 118.8, the FL/RI [1, 16] was 115.7 and 107.5 and the FL/RI [1, 17] was 137.4 and 158.3. The FL/RI [1, 18] was 140.8 and 125.0, the FL/RI [1, 19] was 113.9 and 137.3 and the FL/RI [1, 20] was 15. For the same compound, the FL/RI [1, 21] was 61, the FL/RI [1, 22] was 118 and the FL/RI [1, 23] was 146. It also gave an FL/RI [1, 24] of 148, an FL/RI [1, 25] of 157 and an FL/RI [1, 26] of 151. The FL/RI ([1]; production medium + Galactose (30 g/L) + 2AzGlc (0.25 mM), pH 6.33, agitation 100 rpm) was 51.73 and 50.26, the FL/RI ([1]; production medium + Galactose (30 g/L) + 2AzGlc (0.25 mM), pH 6.33, agitation 200 rpm) was 48.41 and the FL/RI ([1]; production medium + Galactose (30 g/L) + 2AzGlc (0.25 mM), pH 6.33, agitation 300 rpm) was 45.24 and 44.39. It also gave an FL/RI ([1]; production medium + Galactose (30 g/L) + 2AzGlc (0.25 mM), pH 6.66, agitation 100 rpm) of 78.29, an FL/RI ([1]; production medium + Galactose (30 g/L) + 2AzGlc (0.25 mM), pH 6.66, agitation 300 rpm) of 77.94 and an FL/RI ([1]; production medium + Galactose (30 g/L) + 2AzGlc (0.25 mM), pH 7, agitation 200 rpm) of 97.25. For the same compound, the FL/RI ([1]; production medium + Galactose (30 g/L) + 2AzGlc (0.25 mM), pH 7.33, agitation 100 rpm) was 101.26 and 88.76, the FL/RI ([1]; production medium + Galactose (30 g/L) + 2AzGlc (0.25 mM), pH 7.33, agitation 300 rpm) was 110 and 109.76 and 110.12 and the FL/RI ([1]; screen, azido sugar 1 mM, production medium + Glucose (dextrose, 30 g/L)) was “detectable”. For the same compound, the max size reduction [2, 27] was 78%, the max titer loss [2, 27] was 56% and the “concentration at which negative effect on poly production started” value ([2]; 2AzGlc titration, production media + Glucose (dextrose, 30 g/L)) was 1 mM. For the same compound, the “polysaccharide titers with increasing 2AzGlc concentrations” value ([2]; 2AzGlc titration, production medium + Galactose (30 g/L)) was “negatively impacted”, the “Poly Titer” value [2, 3] was 0.2358 mg/mL and 0.22 mg/mL and the “Poly Titer” value [2, 4] was 0.1846 mg/mL and 0.189 mg/mL. For the same compound, the “Poly Titer” value [2, 5] was 0.1856 mg/mL and 0.1876 mg/mL, the “Poly Titer” value [2, 6] was 0.1266 mg/mL and 0.137 mg/mL and the “Poly Titer” value [2, 7] was 0.2204 mg/mL and 0.1796 mg/mL. The “Poly Titer” value [2, 8] was 0.1826 mg/mL and 0.1536 mg/mL, the “Poly Titer” value [2, 9] was 0.1882 mg/mL and 0.1748 mg/mL and the “Poly Titer” value [2, 10] was 0.1251 mg/mL and 0.1011 mg/mL. For the same compound, the polysaccharide production ([2]; azido sugar 20 mM without DMSO, production medium + Galactose (30 g/L)) was “strongly inhibited”, the “polysaccharide titer (average)” value [2, 11] was 0.1815 mg/mL and the “Poly Titer” value [2, 12] was 0.39 mg/mL. The “Poly Titer” value [2, 13] was 0.44 mg/mL and 0.42 mg/mL, the “Poly Titer” value [2, 14] was 0.52 mg/mL and 0.47 mg/mL and the “Poly Titer” value [2, 15] was 0.40 mg/mL and 0.41 mg/mL. For the same compound, the “Poly Titer” value [2, 16] was 0.43 mg/mL and 0.48 mg/mL, the “Poly Titer” value [2, 17] was 0.36 mg/mL and 0.37 mg/mL and the “Poly Titer” value [2, 18] was 0.41 mg/mL and 0.44 mg/mL. The “Poly Titer” value [2, 19] was 0.41 mg/mL, the Titer [2, 20] was 0.63 mg/mL and the Titer [2, 21] was 0.53 mg/mL. For the same compound, the Titer [2, 22] was 0.43 mg/mL, the Titer [2, 23] was 0.32 mg/mL and the Titer [2, 24] was 0.3 mg/mL. For the same compound, the Titer [2, 25] was 0.28 mg/mL, the Titer [2, 26] was 0.28 mg/mL and the “Polysacch. Titer” value ([2]; pH 6.33, agitation 100 rpm) was 0.195 mg/mL and 0.193 mg/mL. The “Polysacch. Titer” value ([2]; pH 6.33, agitation 200 rpm) was 0.171 mg/mL, the “Polysacch. Titer” value ([2]; pH 6.33, agitation 300 rpm) was 0.087 mg/mL and 0.149 mg/mL and the “Polysacch. Titer” value ([2]; pH 6.66, agitation 100 rpm) was 0.247 mg/mL. The “Polysacch. Titer” value ([2]; pH 6.66, agitation 300 rpm) was 0.227 mg/mL, the “Polysacch. Titer” value ([2]; pH 7, agitation 200 rpm) was 0.269 mg/mL and the “Polysacch. Titer” value ([2]; pH 7.33, agitation 100 rpm) was 0.235 mg/mL and 0.216 mg/mL. For the same compound, the “Polysacch. Titer” value ([2]; pH 7.33, agitation 300 rpm) was 0.228 mg/mL and 0.211 mg/mL and the polysaccharide titer ([2]; screen, azido sugar 1 mM, only in production medium + Galactose) was “reduced”.

Source: patent US20250163484A1, “Methods for Incorporating Azido Groups in Bacterial Capsular Polysaccharides” (PFIZER INC., priority 2022, published 2025)
